Source: patent publication US9132111B2, “Topical antimicrobial compositions” (priority 2011, dated 2015)

Columns and labels:
Assay type in all cases: cell-based
[1] = tested on: Staphylococcus aureus ATCC6538; assay: Bactericide effect of antimicrobial composition against Staphylococcus aureus
Method: 1) Testing strain: Staphylococcus aureus ATCC6538, 5-6th generations, provided by the reserve center of China microbial reservation committee.
The testing sample was diluted for 2, 4, 8, 16, 32, 64, 128 and […] folds using standard hard water, then reacted with ATCC6538 for 1 min, 5 min, 10 min.
(§1) 2. Testing Methods and Standards:
(§2) <<Technical Standard for Disinfection>> (2002 Edition)
(§3) GB15979-2002 <<Technical standard for testing disinfection product>> “Procedures for testing bactericide effect”

Eschetichia coli 8099 = assay: Bactericide effect of antimicrobial composition against Eschetichia coli
Method: 1) Testing strain: Eschetichia coli 8099, the 5-6 generations were used; provide by the “Reserve Center of Chinese Microbial Reservation Committee”.
The testing sample was diluted for 2, 4, 8, 16, 32, 64, 128 and 256 folds using standard hard water, then reacted with Eschetichia coli 8099 for 1 min, 5 min, 10 min.
as §1, §2, §3

[2] = tested on: Candida albicans ATCC 10231; assay: Bactericidal effect of antimicrobial composition against Candida albicans
Method: 1) Testing strain: Candida albicans ATCC 10231, the 5-6 generations; provide by the “Reserve Center of Chinese Microbial Reservation Committee”.
The testing sample was diluted for 2, 4, 8, 16, 32, 64, 128 and […] times using standard hard water, then reacted with ATCC 10231 for 1 min, 5 min, 10 min.
as §1, §2, §3
The bactericidal effect of antimicrobial composition against Candida albicans ATCC10231 at 20±1° C. temperature is shown in table 6.

“N,N-di-n-decyl-N,N-dimethyl-ammonium 5-oxopyrrolidine-2-carboxylate [DDAPC]” was tested, and the minimum inhibiting concentrations ([1]; reacted 1 min) was 0.0016%, the minimum inhibiting concentrations ([1]; reacted 5 min) was 0.0004% and the minimum inhibiting concentrations ([1]; reacted 10 min) was 0.0004%. It also gave a minimum inhibiting concentrations (Eschetichia coli 8099; reacted 1 min) of 0.006%, a minimum inhibiting concentrations (Eschetichia coli 8099; reacted 5 min) of 0.003% and a minimum inhibiting concentrations (Eschetichia coli 8099; reacted 10 min) of 0.003%. The minimum inhibiting concentrations ([2]; reacted 1 min) was 0.0016%, the minimum inhibiting concentrations ([2]; reacted 5 min) was 0.0008% and the minimum inhibiting concentrations ([2]; reacted 10 min) was 0.0004%.
